Measured values published in paper PMC4448209 (Journal of Neuroinflammation, 2015).
Entries after “also recorded” stand apart in the source; their conditions may differ.

Tests used:
Aβ-specific antibodies [1] = assay: Anti-Aβ antibody ELISA, HLA-A2.1/HLA-DR1 mice; type: in vivo, mouse; settings: Aβ1-42-coated plates, relative OD
Description: (§1) To measure serum anti-Aβ antibody titers in immunized mice, flat-bottom Nunc MaxiSorp ELISA plates were coated overnight at 4 °C with Aβ1-42 peptide (1 μg/ml in 0.1 M NaHCO3, pH 8.3). Plates were then washed twice with PBS-T and blocked with PBS-1 % BSA for 2 h at room temperature (RT). After two washes, plates were incubated for 2 h at RT with serum samples at various dilutions in blocking buffer. The Aβ1-17-specific mAb 6E10 (0.01 and 1 μg/ml) (Sigma-Aldrich, St Quentin Fallavier, France) was used as a positive internal reference sample. […] Results were expressed as relative OD = Experimental OD/Reference OD for 6E10 mAb in the same plate.

Aβ-specific antibodies [2] = assay: Anti-Aβ antibody ELISA, C57BL/6 mice; type: in vivo, mouse
Description: as §1

AD patients [3] = settings: cited from earlier work
From the text: (§2) Alzheimer’s disease (AD) is a severe neurodegenerative disorder characterized by progressive loss of memory and cognitive functions. Accumulation of amyloid-β peptide (Aβ), both as soluble oligomers and in the form of amyloid plaques, plays a key role in initiating the pathogenic cascade in AD. […] In line with ...

animal models of AD = settings: vaccination; cited from earlier work
From the text: as §2

[4] = system: IFNγ-secreting splenocytes; settings: HLA-A2.1/HLA-DR1 mice, Aβ/CpG/IFA; dendritic cells loaded with Aβ or overlapping nonamer peptides; data not shown
[5] = Hydrophobicity and solubility remark from peptide synthesis; type: physicochemical; settings: likely reason why the 15-mer could not be productively synthetized
[6] = system: IFNγ-secreting splenocytes; assay: IFNγ ELISPOT, splenocytes of immunized C57BL/6 mice; type: in vivo, mouse
1C11 neuronal cells = assay: IFNγ ELISPOT, restimulation with 1C11 neuronal cells; settings: inferred from 1C11 cells and APPPS1 CD11b^+ microglia
Description: Nitrocellulose-based 96-well plates (Millipore, Billerica, MA, USA) were coated with anti-mouse IFN-γ capture mAb (1 μg/ml; clone R4-6A2, BD Biosciences) and saturated with complete culture medium. Responder splenocytes from individual mice were seeded at 10^6 or 5 × 10^5 cells/wells and cultured with medium alone or containing 10 μg/ml of peptide. In some experiments, splenocytes were stimulated with CD11b^+ microglia (3 × 10^4/wells) isolated from the brain of WT or APPPS1 mice, or with mitomycin-treated 1C11 cells (2 × 10^4/wells), a neuronal cell line expressing both APP and H-2^b MHC-I but not MHC-II molecules [25, 26]. Plates were incubated at 37 °C in 5 % CO2 for 18 h, washed, and incubated with biotinylated anti-mouse IFNγ detection mAb (0.5 μ/ml; clone XMG1.2, BD Biosciences). Alkaline phosphatase conjugated to streptavidin (Roche, France) (1/500 dilution, 100 μL/well) was then added. IFNγ-secreting cells were visualized using TNB/BCIP substrate (Promega, Charbonnières, France), and spots were counted using an automatic ELISPOT plate reader. Samples were assayed in triplicate, and the frequency of peptide-specific T cells was calculated after subtracting the mean number of spots obtained in the absence of peptide or cells.

AD patients [7] = settings: phase 3 studies released summer 2012; 10 (bapineuzumab), 11 (solanezumab); cited from earlier work

Aβ1-42: Human Aβ1-42 peptide
Aβ-specific antibodies in serum (Aβ-specific antibodies [1]): Aβ-specific antibodies were detected | anti-Aβ antibody isotypes (Aβ-specific antibodies [2]): predominantly of IgG1 and IgG2b isotypes | beneficial effects in AD patients (AD patients [3]; AN1792): modest beneficial effects | patients developing meningoencephalitis (AD patients [3]; human, in vivo): 6% | benefit in animal models of AD (animal models of AD): of benefit in animal models of AD | CD8^+ T cell response [4]: did not trigger any CD8^+ T cells able to recognize dendritic cells loaded with either Aβ or overlapping nonamer peptides

Aβ28-42: 15-mer candidate peptide, could not be productively synthetized (KGAIIGLMVGGVVIA; Amyloid-beta protein 42; UniProt P05067 699-713, looked up, fragment)
hydrophobicity [5]: very high hydrophobicity | solubility [5]: poor solubility

GLMVGGVVI [Aβ33-41]
restimulation of Aβ33-41NP-specific CD8^+ T cells by exogenously loaded native peptide [6]: could not restimulate Aβ33-41NP-specific CD8^+ T cells when loaded exogenously | natural processing and presentation by microglia and neuronal cells (1C11 neuronal cells): can be naturally processed and presented in both microglia and neuronal cells; also recorded: appears to be naturally processed and presented to immune effectors

solanezumab: humanized anti-Aβ monoclonal antibody
improvement of cognitive performance (AD patients [7]): inefficient at improving cognitive performance
